Measured values published in the supplement of paper PMC10307832.

Tests used:
Experiment in all cases: relative viability (nuclei count vs DMSO), 5 days (fraction); higher = more cells survive
[1] = test system: BEN
Summary of the method: (§1)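 The day after seeding in 1536-well plates, lung cancer cell lines were treated by pin tool with a single drug, or with a fixed anchor-drug dose together with five library-drug doses (not always all listed) in √10 steps. After 5 days, a combined fix-and-stain solution (final 0.05% Triton X-100, 1% formaldehyde, 1 ug/ml Hoechst) was added. Nuclei counted on 4× images gave relative viability as treated counts over vehicle counts, reported as the median of duplicate plates.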

[2] = test system: CAL-12T
Summary of the method: as §1

[3] = test system: COR-L23
Summary of the method: as §1

[4] = test system: HCC-366
Summary of the method: as §1

[5] = test system: LOU-NH91
Summary of the method: as §1

[6] = test system: LU99A
Summary of the method: as §1

[7] = test system: NCI-H1355
Summary of the method: as §1

[8] = test system: NCI-H1437
Summary of the method: as §1

[9] = test system: NCI-H1563
Summary of the method: as §1

[10] = test system: NCI-H1650
Summary of the method: as §1

[11] = test system: NCI-H1651
Summary of the method: as §1

[12] = test system: NCI-H1734
Summary of the method: as §1

[13] = test system: NCI-H1793
Summary of the method: as §1

[14] = test system: NCI-H1975
Summary of the method: as §1

[15] = test system: NCI-H2023
Summary of the method: as §1

[16] = test system: NCI-H2085
Summary of the method: as §1

[17] = test system: NCI-H358
Summary of the method: as §1

[18] = test system: NCI-H441
Summary of the method: as §1

[19] = test system: NCI-H460
Summary of the method: as §1

[20] = test system: NCI-H838
Summary of the method: as §1

[21] = test system: SK-LU-1
Summary of the method: as §1

Structure (SMILES): Nc1ccn([C@@H]2O[C@H](CO)[C@@H](O)[C@@H]2O)c(=O)n1 [Cytarabine] + CS(=O)(=O)N1CCN(Cc2cc3nc(-c4cccc5[nH]ncc45)nc(N4CCOCC4)c3s2)CC1 [Pictilisib] (partner 1 µM)
- relative viability ([1]; first compound 0.005 µM): 0.571
- relative viability ([1]; first compound 0.01581 µM): 0.504
- relative viability ([1]; first compound 0.05 µM): 0.413
- relative viability ([1]; first compound 0.1581 µM): 0.279
- relative viability ([1]; first compound 0.5 µM): 0.195
- relative viability ([2]; first compound 0.005 µM): 0.403
- relative viability ([2]; first compound 0.01581 µM): 0.357
- relative viability ([2]; first compound 0.05 µM): 0.31
- relative viability ([2]; first compound 0.1581 µM): 0.326
- relative viability ([2]; first compound 0.5 µM): 0.222
- relative viability ([3]; first compound 0.005 µM): 0.637
- relative viability ([3]; first compound 0.01581 µM): 0.51
- relative viability ([3]; first compound 0.05 µM): 0.532
- relative viability ([3]; first compound 0.1581 µM): 0.171
- relative viability ([3]; first compound 0.5 µM): 0.112
- relative viability ([4]; first compound 0.005 µM): 0.134
- relative viability ([4]; first compound 0.01581 µM): 0.129
- relative viability ([4]; first compound 0.05 µM): 0.0867
- relative viability ([4]; first compound 0.1581 µM): 0.0754
- relative viability ([4]; first compound 0.5 µM): 0.0688
- relative viability ([5]; first compound 0.005 µM): 0.525
- relative viability ([5]; first compound 0.01581 µM): 0.56
- relative viability ([5]; first compound 0.05 µM): 0.489
- relative viability ([5]; first compound 0.1581 µM): 0.385
- relative viability ([5]; first compound 0.5 µM): 0.369
- relative viability ([6]; first compound 0.005 µM): 0.372
- relative viability ([6]; first compound 0.01581 µM): 0.305
- relative viability ([6]; first compound 0.05 µM): 0.282
- relative viability ([6]; first compound 0.1581 µM): 0.308
- relative viability ([6]; first compound 0.5 µM): 0.299
- relative viability ([7]; first compound 0.005 µM): 0.398
- relative viability ([7]; first compound 0.01581 µM): 0.392
- relative viability ([7]; first compound 0.05 µM): 0.205
- relative viability ([7]; first compound 0.1581 µM): 0.302
- relative viability ([7]; first compound 0.5 µM): 0.196
- relative viability ([8]; first compound 0.005 µM): 0.381
- relative viability ([8]; first compound 0.01581 µM): 0.245
- relative viability ([8]; first compound 0.05 µM): 0.252
- relative viability ([8]; first compound 0.1581 µM): 0.112
- relative viability ([8]; first compound 0.5 µM): 0.11
- relative viability ([9]; first compound 0.005 µM): 0.595
- relative viability ([9]; first compound 0.01581 µM): 0.649
- relative viability ([9]; first compound 0.05 µM): 0.657
- relative viability ([9]; first compound 0.1581 µM): 0.589
- relative viability ([9]; first compound 0.5 µM): 0.6
- relative viability ([10]; first compound 0.005 µM): 0.442
- relative viability ([10]; first compound 0.01581 µM): 0.467
- relative viability ([10]; first compound 0.05 µM): 0.359
- relative viability ([10]; first compound 0.1581 µM): 0.205
- relative viability ([10]; first compound 0.5 µM): 0.181
- relative viability ([11]; first compound 0.005 µM): 0.446
- relative viability ([11]; first compound 0.01581 µM): 0.522
- relative viability ([11]; first compound 0.05 µM): 0.533
- relative viability ([11]; first compound 0.1581 µM): 0.17
- relative viability ([11]; first compound 0.5 µM): 0.165
- relative viability ([12]; first compound 0.005 µM): 0.365
- relative viability ([12]; first compound 0.01581 µM): 0.217
- relative viability ([12]; first compound 0.05 µM): 0.213
- relative viability ([12]; first compound 0.1581 µM): 0.147
- relative viability ([12]; first compound 0.5 µM): 0.118
- relative viability ([13]; first compound 0.005 µM): 0.312
- relative viability ([13]; first compound 0.01581 µM): 0.29
- relative viability ([13]; first compound 0.05 µM): 0.383
- relative viability ([13]; first compound 0.1581 µM): 0.307
- relative viability ([13]; first compound 0.5 µM): 0.194
- relative viability ([14]; first compound 0.005 µM): 0.271
- relative viability ([14]; first compound 0.01581 µM): 0.281
- relative viability ([14]; first compound 0.05 µM): 0.311
- relative viability ([14]; first compound 0.1581 µM): 0.289
- relative viability ([14]; first compound 0.5 µM): 0.195
- relative viability ([15]; first compound 0.005 µM): 0.193
- relative viability ([15]; first compound 0.01581 µM): 0.137
- relative viability ([15]; first compound 0.05 µM): 0.112
- relative viability ([15]; first compound 0.1581 µM): 0.0708
- relative viability ([15]; first compound 0.5 µM): 0.0698
- relative viability ([16]; first compound 0.005 µM): 0.422
- relative viability ([16]; first compound 0.01581 µM): 0.433
- relative viability ([16]; first compound 0.05 µM): 0.401
- relative viability ([16]; first compound 0.1581 µM): 0.367
- relative viability ([16]; first compound 0.5 µM): 0.281
- relative viability ([17]; first compound 0.005 µM): 0.318
- relative viability ([17]; first compound 0.01581 µM): 0.288
- relative viability ([17]; first compound 0.05 µM): 0.298
- relative viability ([17]; first compound 0.1581 µM): 0.179
- relative viability ([17]; first compound 0.5 µM): 0.155
- relative viability ([18]; first compound 0.005 µM): 0.481
- relative viability ([18]; first compound 0.01581 µM): 0.443
- relative viability ([18]; first compound 0.05 µM): 0.411
- relative viability ([18]; first compound 0.1581 µM): 0.205
- relative viability ([18]; first compound 0.5 µM): 0.223
- relative viability ([19]; first compound 0.005 µM): 0.328
- relative viability ([19]; first compound 0.01581 µM): 0.322
- relative viability ([19]; first compound 0.05 µM): 0.226
- relative viability ([19]; first compound 0.1581 µM): 0.106
- relative viability ([19]; first compound 0.5 µM): 0.0854
- relative viability ([20]; first compound 0.005 µM): 0.334
- relative viability ([20]; first compound 0.01581 µM): 0.495
- relative viability ([20]; first compound 0.05 µM): 0.435
- relative viability ([20]; first compound 0.1581 µM): 0.257
- relative viability ([20]; first compound 0.5 µM): 0.243
- relative viability ([21]; first compound 0.005 µM): 0.519
- relative viability ([21]; first compound 0.01581 µM): 0.515
- relative viability ([21]; first compound 0.05 µM): 0.333
- relative viability ([21]; first compound 0.1581 µM): 0.216
- relative viability ([21]; first compound 0.5 µM): 0.216
